Experimental data reported in patent publication US5491129A, “Synthetic peptides derived from vitronectin and pharmaceutical compositions comprising them” (Yeda Research and Development Co. Ltd., priority 1992, dated 1996).
Blank lines part the entries; values can stand above or below the compound they belong to. Where a SMILES comes first, the peptide text is derived from it. Where no end group is shown, it is not given here.

How the values were obtained:
PAI-1 [1] = target: T1, PAI-1 (Homo sapiens, UniProt P05121); test: Release of PAI-1 activity by endothelial cells in culture; assay type: cell-based; conditions: human endothelial cell system, 6 hours, control = 100%
T1 sequence (P05121 24-402): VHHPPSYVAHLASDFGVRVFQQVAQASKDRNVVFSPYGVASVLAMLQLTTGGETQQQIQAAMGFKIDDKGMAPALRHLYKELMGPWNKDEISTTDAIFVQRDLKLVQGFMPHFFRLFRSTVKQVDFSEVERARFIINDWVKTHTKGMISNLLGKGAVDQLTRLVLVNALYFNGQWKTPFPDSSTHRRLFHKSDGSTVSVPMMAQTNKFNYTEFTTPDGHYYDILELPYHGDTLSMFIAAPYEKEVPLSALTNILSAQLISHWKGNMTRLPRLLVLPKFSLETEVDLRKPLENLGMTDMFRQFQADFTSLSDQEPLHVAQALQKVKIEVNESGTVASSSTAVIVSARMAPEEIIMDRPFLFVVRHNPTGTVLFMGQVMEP
Procedure: PAI-1 is determined in the supernatant of HUVEC cells according to the method of Chmielewska et al., 1983. Briefly, cells are cultured in semiconfluent way with or without ECM. The culture medium is changed for Hank's balanced salt solution with 2% FCS and the tested substances with or without added plasmin (5 μg/ml) are diluted in this buffer and incubated with the cells for 6 hours. Samples from the cell supernatant are assayed for the PAI-1 activity.
For the PAI-1 assay, the cell supernatant is incubated with a fixed amount of tPA (40 U/ml) and the residual activity of the tPA is determined by a substrate composed of plasminogen (0.1μg/ml), chromogenic substrate (S-2251) and stimulator (Kabi, Sweden). After incubation with the substrate, O.D. is measured at 405 run and the amount of the inhibitor is calculated from calibration curve. PAI-1 antigen may also be determined with commercial kits.

PAI-1 [2] = target: T1, PAI-1; test: Competition ELISA: binding of vitronectin onto immobilized activated PAI-1; set-up: purchased American Diagnostica, New York; conditions: for level of inhibition achieved: FIG. 7, vitronectin 0.5 μg/ml, increasing peptide concentrations
Procedure: Protein concentration was determined by the method described by Bradford, 1976. The binding of vitronectin to immobilized PAI-1 was conducted as described by Salonen et al., 1989. The activation of PAI-1 by sodium dodecylsulfate was carried out as described by Katagiri et al., 1988. Amino acid sequencing was performed with an Applied Biosystem 475A sequencer.
Each of the synthetic peptides shown in Scheme I and each of the peptides containing amino acids with a D configuration (BP7, BP8 and BP14) was tested by a competition ELISA assay for its ability to inhibit the binding of vitronectin to immobilized activated PAI-1. The first screening (FIGS. 3A-3D) was carried out with an identical molar concentration (25 μM) of the peptides. In view of a possible variability in such tests (mainly due to some variability in the activated PAI-1 coating of the plates), a control of vitronectin alone was run alongside in each plate for reference.
The various synthetic peptides (all 50 μM) were dissolved in 50 μl of a buffer composed of PBS, Tween 20 (0.01%), polyethylene-glycol (average M.W. 8 kDa) (4% w/v). Each of the samples was added to a microtiter well coated with SDS-activated PAI, prepared as described by Katagiri et al., 1988. After an incubation of 30 min at 22° C., aliquots (50 μl) of a vitronectin solution (at various concentrations) in the same buffer were added to each well. This was followed by an incubation for 2 hrs at 37° C. The amount of bound vitronectin was determined with specific rabbit anti-human Vn antibodies (1:1000 dilution), followed by a β-galactosidase-linked protein A and using o-nitrophenyl-β-D-galactopyranoside (ONPG) as a substrate. The enzymatic reaction was allowed to proceed and the absorbance at 405+490 nm was measured. Each point in the graphs represents the mean of triplicate determinations. […]

PAI-1 activity increase over control at 10 µM (PAI-1 [1]; 1 × 10^-5 M, read-out: PAI activity % above control (mean)): 29%
PAI-1 activity increase over control at 1 µM (PAI-1 [1]; 1 × 10^-6 M, read-out: PAI activity % above control (mean)): 47%
PAI-1 activity increase over control at 0.1 µM (PAI-1 [1]; 1 × 10^-7 M, read-out: PAI activity % above control (mean)): 0%
PAI-1 activity increase over control at 0.33 µM (PAI-1 [1]; 3.3 × 10^-7 M, read-out: PAI activity % above control (mean)): 17%
level of inhibition achieved (PAI-1 [2]): approximately 65%
Compound: C[C@H](NC(=O)[C@H](CCCNC(=N)N)NC(=O)[C@H](CO)NC(=O)[C@@H]1CCCN1C(=O)[C@H](CCCNC(=N)N)NC(=O)[C@H](CCCNC(=N)N)NC(=O)[C@H](CO)NC(=O)[C@H](CC(N)=O)NC(=O)[C@H](CCC(N)=O)NC(=O)[C@H](CC(N)=O)NC(=O)[C@H](CCCNC(=N)N)NC(=O)CNC(=O)[C@H](CCCNC(=N)N)NC(=O)[C@H](CO)NC(=O)[C@H](Cc1c[nH]cn1)NC(=O)CNC(=O)[C@H](CCCNC(=N)N)NC(=O)[C@H](CCC(N)=O)NC(=O)[C@@H](N)CO)C(=O)O [BP4] (H-SQRGHSRGRNQNSRRPSRA-OH)

level of inhibition achieved (PAI-1 [2]): approximately 65%
Compound: N=C(N)NCCC[C@H](NC(=O)CNC(=O)[C@H](CCCNC(=N)N)NC(=O)[C@H](CO)NC(=O)[C@H](Cc1c[nH]cn1)NC(=O)CNC(=O)[C@H](CCCNC(=N)N)NC(=O)[C@H](CCC(N)=O)NC(=O)[C@H](CO)NC(=O)[C@H](CCCNC(=N)N)NC(=O)[C@H](Cc1ccc(O)cc1)NC(=O)CNC(=O)[C@@H](N)CCCCN)C(=O)O [BP5] (H-KGYRSQRGHSRGR-OH)

PAI-1 activity decrease below control at 10 µM (PAI-1 [1]; 1 × 10^-5 M): 19.5%
PAI-1 activity decrease below control at 1 µM (PAI-1 [1]; 1 × 10^-6 M): 36.5%
PAI-1 activity decrease below control at 0.1 µM (PAI-1 [1]; 1 × 10^-7 M): 19%
PAI-1 activity decrease below control at 0.01 µM (PAI-1 [1]; 1 × 10^-8 M): 19%
PAI-1 activity decrease below control at 0.33 µM (PAI-1 [1]; 3.3 × 10^-7 M): 39%
level of inhibition achieved (PAI-1 [2]): approximately 65%
Compound: N=C(N)NCCC[C@H](NC(=O)[C@H](Cc1ccc(O)cc1)NC(=O)CNC(=O)[C@H](CCCCN)NC(=O)[C@H](CCCNC(=N)N)NC(=O)[C@H](CC(N)=O)NC(=O)[C@H](CCCNC(=N)N)NC(=O)[C@H](Cc1c[nH]cn1)NC(=O)[C@H](CCCNC(=N)N)NC(=O)[C@H](Cc1ccccc1)NC(=O)[C@H](CCCNC(=N)N)NC(=O)[C@H](CCC(N)=O)NC(=O)[C@H](CCCCN)NC(=O)[C@@H](N)CCCCN)C(=O)N[C@@H](CO)C(=O)N[C@@H](CCC(N)=O)C(=O)O [BP6] (H-KKQRFRHRNRKGYRSQ-OH)

binding to immobilized PAI-1 (effect on vitronectin binding) (PAI-1 [2]; D-configuration peptides, 1-10 μM, FIG. 8): bind to immobilized PAI-1
Compound: BP7: same sequence as BP6 (K348-Q363) but the underlined residues in Scheme II have D configuration (KKQRFRHRNRKGYRSQ; also: some residues are D-form, positions not given here (underlining not shown))
